Reference: patent US8193172B2, “Methods for the treatment of major depressive disorder using glucocorticoid receptor antagonists” (Pop Test Cortisol LLC, priority 2001, dated 2012)
Where two headings read alike, the source gives them in different places.

Columns and labels:
[1] = system: Major Depressive Disorder patients; assay: Double blind, 4 week, paroxetine controlled study of Org 34517 in depressed patients (HAMD-21, afternoon cortisol test); format: in vivo; conditions: daily dose 150-300 mg, oral, FIG. 1
Description: A double blind, 4 week, paroxetine controlled study of Org 34517 in depressed patients was carried out. Paroxetine is a selective serotonin re-uptake inhibitor which is recognized as an effective antidepressant for major depression.
Patients were randomly allocated to one of three treatment groups. Group I patients (50 patients) received 2 capsules with 75 mg of Org 34517 and one placebo (total daily dose 150 mg) for the first 2 weeks and 2 capsules with 75 mg Org 34517 and 1 capsule with 150 mg (total daily dose 300 mg) the next 2 weeks; Group II patients (46 patients) received 3 capsules with 150 mg Org 34517 (total daily dose 450 mg) in the first 2 weeks and 4 capsules of Org 34517 (total daily dose 600 mg) in the next 2 weeks; Group III patients (44 patients) received 2 capsules with 10 mg paroxetine and one placebo capsule (total daily dose 20 mg) for the first 2 weeks, followed by 2 capsules of 10 mg and one capsule of 20 mg paroxetine (total daily dose 40 mg) in the next 2 weeks. Medication was administered orally in the morning. Efficacy assessment was done on days 4, 7, 10, 14, 21, 28 and 35 by using the 21-item HAMD scale.
The cortisol levels were determined using the afternoon cortisol test (ACT) as described by Halbreich et al. [J. Clin. Endocrinol. Metab. (1982) 54 (6), 1262].

[2] = system: psychosis associated with psychotic major depression; conditions: mifepristone 8-12 mg/kg/day over 4 days; cited from earlier work
[3] = system: psychosis associated with psychotic major depression; conditions: cited from earlier work

| Compound | p of correlation between HAMD-21 change and cortisol (ACT) change ([1]; HAMD-21 change scored at day 14, cortisol change at 28 days) | clinical improvement (HAMD decrease) in relation to cortisol change [1] | effect in the treatment of psychosis associated with psychotic major depression [2] | change in Brief Psychiatric Rating Scale ([3]; daily dose 50 mg) [%] | change in Brief Psychiatric Rating Scale ([3]; daily dose 600 mg) [%] | change in Brief Psychiatric Rating Scale ([3]; daily dose 1200 mg) [%] |
| --- | --- | --- | --- | --- | --- | --- |
| CC#C[C@]1(O)CC[C@H]2[C@@H]3CCC4=CC(=O)CCC4=C3[C@@H](c3ccc4c(c3)OCO4)C[C@@]21C [Org 34517, (11β,17β)-11-(1,3-benzodioxol-5-yl)-17-hydroxy-17-(1-propynyl)estra-4,9-dien-3-one] | 0.02 | most prominent clinical improvement (HAMD decrease) is seen in patients were cortisol is not increased |  |  |  |  |
| CC#C[C@]1(O)CC[C@H]2[C@@H]3CCC4=CC(=O)CCC4=C3[C@@H](c3ccc(N(C)C)cc3)C[C@@]21C [mifepristone, 17β-hydroxy-11β-(4-dimethylaminophenyl)-17α-(1-propynyl)estra-4,9-dien-3-one] |  |  | effective | 33 | 40 | 52 |
